These results are taken from patent publication US8692001B2, “Sulfonamides for the modulation of PKM2” (Dynamix Pharmaceuticals Ltd., priority 2010, dated 2014).

In one assay the target is T1, PKM2, human recombinant (Homo sapiens, UniProt P14618).
T1 construct: purchased BPS 50295
Kind of assay: PKM2 enzymatic activity assay (Kinase-Glo Plus luminescence). As to conditions: PKM2 activation; 0.1 nM PKM2, 0.1 mM ADP, 0.5 mM PEP, room temperature, 1 hour. The format is biochemical. As to the method: PKM2 performs the following enzymatic reaction, where the PKM2 substrates, PEP (phosphoenolpyruvate) and ADP, are converted to pyruvate and ATP as follows: PEP+ADP→Pyruvate+ATP. All of the enzymatic reactions were conducted in duplicates at room temperature for 1 hour in a 50 μL mixture containing:
PKM2 assay buffer (50 mM Immidazole, pH 7.2; 7 mM MgCl2; 50 mM KCl; 0.01% Tween; and 0.05% BSA), 0.1 mM ADP, 0.5 mM PEP, 0.1 nM PKM2 enzyme (PKM2, human recombinant (BPS catalog number 50295)) and the indicated test compound.
Fructose 1,6 biphosphate, (FBP (Sigma)) was used as a positive control for activation at concentration of 0.5 mM. After enzymatic reactions, 50 μL of Kinase-Glo® Plus reagent (Promega kit) was added to each well and luminescence was measured using a BioTek Synergy™ 2 microplate reader.
PKM2 activity assays were performed in duplicates at each concentration. The luminescence data were analyzed using the computer software, GraphPad PRISM®. In the absence of the compound, the luminescence was defined as 0% activity. The percent activity in the presence of each compound was calculated according to the following equation: % Activity=[(L−Lb)/(Lt−Lb)−1]×100% where L=the luminescence in the presence of the test compound, Lb=the luminescence in the absence of PKM2, and Lt=the luminescence intensity in the absence of the test compound. The % activity values versus a series of compound concentrations were plotted using non-linear regression analysis of Sigmoidal dose-response curve generated with the equation Y=B+(T−B)/1+10^((LogEC50−X)×Hill Slope), where Y=percent activity, B=minimum percent activity, T=maximum percent activity, X=logarithm of compound and Hill Slope=slope factor or Hill coefficient. The EC50 value was determined for the indicated compounds as the concentration causing a half-maximal percent activity.

For assay [1], the system named is H1299 (Non small cell lung carcinoma cell line). Kind of assay: In vitro cell proliferation, Assay Protocol I (CellTiterGlo). As to conditions: Homo sapiens, NCI-H1299, 96 total hours of culture. The format is cell-based. As for the experimental part: (§1) Growth inhibitory activity against the human tumor cell lines of compounds of the invention was determined using Promega's CellTiterGlo® assay. The cell lines of interest were placed in a 96-well microculture plate (Costar® white, flat bottom #3917) in a total volume of 90 μL/well. After 24 hours of incubation in a humidified incubator at 37° C. with 5% CO2 and 95% air, 10 μL of serially diluted test compounds in growth medium were added to each well. After 96 total hours of culture in a CO2 incubator, the plated cells and CellTiter-Glo® (Promega # G7571) reagents were brought to room temperature to equilibrate for 30 minutes. 100 μL of CellTiter-Glo® reagent was added to each well. The plate was shaken for 2 minutes and then left to equilibrate for 10 minutes before reading luminescence on the Tecan GENios microplate reader.
(§2) Percent inhibition of cell growth was calculated relative to untreated control wells. All tests were performed in triplicate for each concentration level. The IC50 value for the test compounds was estimated using Prism 3.03 by curve-fitting the data.
On the technique in general: In ATP-based viability assays light output follows the ATP content of the culture.

For assay [2] the test system is unchanged. Kind of assay: In vitro cell proliferation, Assay Protocol II (cell proliferation index, fluorescent membrane marker, flow cytometry). Particulars: Homo sapiens, NCI-H1299, as measured by Assay Protocol II. The format is cell-based. As to the method: In a second assay to determine the inhibition of cell proliferation by a compound of the invention, cell proliferation of the cell line of interest was measured by a cell proliferation index assay using Fluofarma® based technology. This assay is based on the dilution rate of a fluorescent membrane marker, which is a direct function of the number of cell divisions. Briefly, the assay is performed by loading the cells with a non-toxic fluorescent phospholipid analog before the seeding. […] Flow cytometry analysis of the fluorescent probe is performed after the loading of the cells both prior to, as well as after treatment with various concentrations of the test compound. The dilution rate of the fluorescent probe at the single cell level is directly correlated to the number of cell divisions.
(In general: Flow cytometry measures light scatter and fluorescence of single cells or particles in a stream.)

The test system of assay [3] is 786-O (Renal cancer cell line). Kind of assay: In vitro cell proliferation, Assay Protocol I (CellTiterGlo). Type of assay: cell-based. As to conditions: Homo sapiens, 786-0. As to the method:
as §1, §2

Assay [4] deals with A549 (Non-small cell lung carcinoma cell line). The description is as above. The format is cell-based. Particulars: Homo sapiens. As to the method:
as §1, §2

In assay [5] the test system is Colo-205 (Colorectal cancer cell line). Described as above. Type of assay: cell-based. As to conditions: Homo sapiens. As to the method: as §1, §2
Assay [6] deals with HT-29 (Colorectal cancer cell line). The description is as above. Particulars: Homo sapiens. Type of assay: cell-based. As to the method:
as §1, §2

Assay [7] relates to HeLa (Cervical cancer cell line). The assay is described as above. Type of assay: cell-based. As to conditions: Homo sapiens. As to the method:
as §1, §2

In assay [8] the test system is HepG2 cancer cells (hepatocellular carcinoma cells). Kind of assay: Bioenergetic study, XF24 analyzer (OCR and ECAR). The format is cell-based. Particulars: HepG2 cells treated at 100 μM, recorded over an 8 hour period; FIG. 2. As to the method: Bioenergetic studies were performed using XF24 analyzer (Seahorse Bioscience). Oxygen Consumption Rate (OCR), a measure of mitochondrial oxydative phosphorylation, and Extra-Cellular Acidification Rate (ECAR), which represents glycolysis, were recorded over an 8 hour period for cells treated with various test compounds at 100 μM.

Assay [9] is described as follows: Cell proliferation and apoptosis over time (cell counts, caspase 3/7 assay), FIG. 3. Type of assay: cell-based. As for the experimental part: Additionally, the effect of 5-((2,3-dihydrobenzo[b][1,4]dioxin-6-yl)sulfonyl)-2-methyl-1-(methylsulfonyl)indoline on cell proliferation and apoptosis was measured and the results are shown in FIG. 3.

T1 sequence (P14618 whole entry): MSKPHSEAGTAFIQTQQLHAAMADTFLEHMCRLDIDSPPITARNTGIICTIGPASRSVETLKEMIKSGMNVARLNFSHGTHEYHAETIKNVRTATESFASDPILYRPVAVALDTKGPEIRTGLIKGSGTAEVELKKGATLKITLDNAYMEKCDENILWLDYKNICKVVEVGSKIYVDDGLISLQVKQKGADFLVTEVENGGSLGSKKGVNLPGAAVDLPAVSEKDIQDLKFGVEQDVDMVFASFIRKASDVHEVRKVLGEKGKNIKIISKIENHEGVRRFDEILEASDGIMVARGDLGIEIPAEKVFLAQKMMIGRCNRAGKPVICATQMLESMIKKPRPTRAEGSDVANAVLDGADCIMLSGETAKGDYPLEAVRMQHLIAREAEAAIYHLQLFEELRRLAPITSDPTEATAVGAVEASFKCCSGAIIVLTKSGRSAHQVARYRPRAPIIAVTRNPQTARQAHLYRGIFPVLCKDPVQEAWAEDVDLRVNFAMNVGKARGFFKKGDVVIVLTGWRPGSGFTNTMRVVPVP

Usually EC50 stands for the midpoint of the concentration-response curve. Turning to `C[C@H]1Cc2cc(S(=O)(=O)c3ccc4c(c3)OCCO4)ccc2N1S(=O)(=O)Cc1ccccc1` [Compound 13A], the EC50 on PKM2, human recombinant fell in the range of 1 to 10 µM. Still for that read-out and setting: to `CC1Cc2cc(S(=O)(=O)Nc3ccc4c(c3)OCCO4)ccc2N1S(C)(=O)=O` (stereo not drawn) [Compound 23A] belongs 10 to 100 µM.

Consider `CCN(c1ccc(S(=O)(=O)c2ccc3c(c2)OCCO3)cc1)S(C)(=O)=O` [Compound 24A], for which the EC50 on PKM2, human recombinant fell in the range of 10 to 100 µM. Regarding `CCN(c1ccc(S(=O)(=O)c2ccc3c(c2)OCCO3)c(C)c1)S(C)(=O)=O` [Compound 12A], the EC50 on PKM2, human recombinant is 1 to 10 µM. The same measure, in the same setting: the same measure for `CS(=O)(=O)N1CCCc2cc(S(=O)(=O)c3ccc4c(c3)OCCO4)ccc21` [Compound 7A]: 1 to 10 µM. One may read the IC50 as the point on the concentration scale where inhibition reaches its midpoint. A lower IC50 goes with greater potency. For `CS(=O)(=O)N1CCc2cc(S(=O)(=O)c3ccc4c(c3)OCCO4)ccc21` [Compound 11A, 5-((2,3-dihydrobenzo[b][1,4]dioxin-6-yl)sulfonyl)-1-(methylsulfonyl)indoline], in assay [1], the IC50 is under 20 µM. In [2], `CS(=O)(=O)N1Cc2ccc(S(=O)(=O)c3ccc4c(c3)OCCO4)cc2C1` [Compound 6A, 5-((2,3-dihydrobenzo[b][1,4]dioxin-6-yl)sulfonyl)-2-(methylsulfonyl)isoindoline] had an IC50 of under 20 µM. As to `CC(C)N(c1ccc(S(=O)(=O)c2ccc3c(c2)OCCO3)cc1)S(C)(=O)=O` [Compound 10A], the EC50 at PKM2, human recombinant is 1 to 10 µM. Same read-out and setting: to `Cc1cn(S(C)(=O)=O)c2ccc(S(=O)(=O)c3ccc4c(c3)OCCO4)cc12` [Compound 21A] belongs 1 to 10 µM. On to `CC1Cc2cc(S(=O)(=O)c3ccc4c(c3)OCCO4)ccc2N1S(C)(=O)=O` (stereo not drawn) [Compound 2A, 5-((2,3-dihydrobenzo[b][1,4]dioxin-6-yl)sulfonyl)-2-methyl-1-(methylsulfonyl)indoline], for which the EC50 on PKM2, human recombinant was in the range of 1 to 10 µM. In addition, the IC50 was under 40 µM in assay [2]; under 30 µM in assay [3]; under 50 µM in assay [4]; under 30 µM in assay [5]; under 10 µM in assay [1]; over 100 µM in assay [6]. In assay [7], the IC50 was under 60 µM. In addition, the “Metabolic activity (OCR and ECAR)” value in assay [8] is reported as “less metabolically active”. Further, the “Effect on cell proliferation (cell counts)” value in assay [9] (FIG. 3, as a function of time after treatment) is listed as “induces a period of growth arrest”. Besides, the “Cells that underwent apoptosis (caspase 3/7 assay)” value in assay [9] (by day 15, FIG. 3) is given as “up to 60%”.

For the compound `CC(=O)N1c2ccc(S(=O)(=O)c3ccc4c(c3)OCCO4)cc2CC1C` (stereo not drawn) [Compound 4A], the EC50 on PKM2, human recombinant fell in the range of 1 to 10 µM.
